In test [1] the test system is SK-N-BE(2)c cells. Put plainly: Clonogenic assay. The class given is cell-based, human. The conditions noted are these: R9-caPep alone 20 µM 3 weeks, or cisplatin alone 1 µM 2 h, 3 dishes averaged. The method, then:
Three hundred fifty SK-N-BE(2)c cells were seeded onto a 60-mm tissue culture dish. Once attached overnight, cells were treated with or without cisplatin for 2 h. Cells were washed twice with growth medium and were cultured in fresh medium with or without R9-caPep for 3 weeks to allow colony formation. The medium was changed every 3 d. The colonies formed under each treatment conditions were counted after being stained with 0.5% crystal violet.

Test [2] has as its system ãH2A.X level. Put plainly: γH2A.X western blot after γ-irradiation. It counts as cell-based. The conditions noted are these: 30 µM peptide, 2 h pretreatment, 5 Gy. As for the experimental part:
(§1) To study DNA damage and repair, attached cells were pretreated with the peptides for 2 h and were then ã-irradiated (5 Gy). After irradiation, cells were cultured in the presence of the peptides for the indicated time. For analyzing ãH2A.X foci formation, cells were fixed in a solution of methanol and acetone (70%:30% v/v) for 15 min at −20°C. The slides were air-dried for storage and rehydrated in PBS prior to immunostaining. Cells were stained by a mouse monoclonal antibody specific to ãH2A.X (Millipore, Billerica, MA) followed by an Alexa Fluor 488 conjugated anti-mouse IgG antibody. For analyzing Rad51 foci formation, cells were fixed in PBS buffered 4% paraformaldehyde at room temperature for 15 min. After being washed twice by PBS, cells were permeabilized in PBS containing 0.5% triton for 15 min on ice. The fixed and permeabilized cells were stained with a rabbit polyclonal antibody raised against the human Rad51 (Santa Cruz) followed by an Alexa Fluor 488 conjugated anti-rabbit IgG antibody. Stained cells were visualized and imaged by a confocal microscope.
Cell extracts were prepared by dissolving cell pellets directly into the Laemmli sample buffer and resolved in a 4–12% SDS polyacrylamide gel. Resolved proteins were blotted onto a nitrocellulose membrane. The membrane was blocked with 5% nonfat dry milk and incubated with an antibody specific to ãH2A.X (Millipore), total H2A.X (Cell Signaling Technology, Danvers, MA), MYCN (Cell Signaling Technology), or actin (Sigma) in the blocking buffer. After incubation with peroxidase-conjugated secondary antibodies, the protein of interest was detected using an ECL kit purchased from GE Healthcare.
On the technique in general: In western blotting, separated proteins are transferred to a membrane and probed.

Test [3] has as its system synchronized cells. Kind of test: Cell cycle analysis of synchronized cells within 6 h (data not shown). Particulars: 6 h after mimosine release. It counts as cell-based. The method, then:
Cells were seeded at 1×10^5/ml. Once attached, cells were treated with or without R9-caPep for 48 hours. Cells were fixed in 60% ethanol and stained with propidium iodide (PI). The cellular PI fluorescence intensity was determined by flow cytometry. The flow cytometry data were analyzed by the FlowJo program to model various cell populations.
Cells were seeded at 1×10^5/ml onto a chamber slide and were allowed to attach overnight. To analyze the interaction of PCNA with FEN1, LIGI, or Pol ä, we first synchronize cells at the G1/S boundary. The synchronization is achieved by starving cells in medium containing 0.25% FBS for 24 h. Cells were further cultured in the complete medium containing 400 µM of mimosine for 24 h. To release cells into S phase, cells were washed and incubated in mimosine-free medium containing 30 µM R9-caPep or R9-srbPep for 6 h. We pre-determined that the majority of cells were in the S-phase 6 h after mimosine was removed (data not shown). Cells were fixed in ice-cold methanol:acetone (50%:50%) for 10 min or in 4% paraformaldehyde for 20 min at room temperature. Cells were incubated with a goat polyclonal anti-PCNA antibody (Santa Cruz) and a mouse monoclonal anti-FEN1 antibody (Santa Cruz), a mouse anti-POLD3 antibody (Sigma, St. Louis, MO), or a mouse anti-LIGI antibody (Abcam, Cambridge, MA) for 1 h at room temperature. […]

Test [4] concerns panel of NB cell lines. It counts as cell-based, human. Particulars: up to 50 µM; data not shown. As for the experimental part:
The human NB cell lines, SK-N-DZ, SK-N-BE(2)c, SK-N-AS, SK-N-SH, and SK-N-FI were obtained from the American Type Culture Collection (Rockville, MD). Cells were maintained in DMEM with 10% fetal bovine serum (FBS), 100 units/ml penicillin, and 100 µg/ml streptomycin in the presence of 5% CO2 at 37°C. Human PBMCs from a healthy donor were purchased from Sanguine BioSciences (Valencia, CA) and grown in RPMI1640 with10% FBS, 100 units/ml penicillin, 100 µg/ml streptomycin, and 10 ng/ml IL-2 in the presence of 5% CO2 at 37°C. Human embryonic progenitor cell line 7SM0032 was acquired from Millipore (Billerica, MA) and grown in the hEPM-1 Media Kit purchased from the same company.
To measure cell growth, cells were seeded at 3×10^4/ml. After being allowed to attach overnight, cells were treated with various concentrations of the peptides for 72 h. Cell growth was measured by the CellTitor-Glo assay (Promega, Madison, WI) according to manufacturer's instruction. To measure apoptosis, cells were seeded at 1×10^5/ml onto a chamber slide. Once attached, cells were treated with the peptides for 48 h. Cells were fixed and analyzed by a TUNEL assay using the TMR red in situ cell death detection kit (Roche Diagnostics, Indianapolis, IN).

For test [5], the system named is PCNA and LIGI co-localization in SK-N-AS NB cells. Put plainly: PCNA/LIGI co-localization, immunofluorescence. It counts as cell-based, human. Particulars: synchronized, 30 µM peptide 6 h after mimosine release. As for the experimental part: (§2) Cells were seeded at 1×10^5/ml onto a chamber slide and were allowed to attach overnight. To analyze the interaction of PCNA with FEN1, LIGI, or Pol ä, we first synchronize cells at the G1/S boundary. The synchronization is achieved by starving cells in medium containing 0.25% FBS for 24 h. Cells were further cultured in the complete medium containing 400 µM of mimosine for 24 h. To release cells into S phase, cells were washed and incubated in mimosine-free medium containing 30 µM R9-caPep or R9-srbPep for 6 h. We pre-determined that the majority of cells were in the S-phase 6 h after mimosine was removed (data not shown). Cells were fixed in ice-cold methanol:acetone (50%:50%) for 10 min or in 4% paraformaldehyde for 20 min at room temperature. Cells were incubated with a goat polyclonal anti-PCNA antibody (Santa Cruz) and a mouse monoclonal anti-FEN1 antibody (Santa Cruz), a mouse anti-POLD3 antibody (Sigma, St. Louis, MO), or a mouse anti-LIGI antibody (Abcam, Cambridge, MA) for 1 h at room temperature. After being washed with PBS, cells were incubated with Alexa Fluor 488 conjugated anti-mouse IgG and Alexa Fluor 555 conjugated anti-goat IgG antibodies (Invitrogen, Grand Island, NY) for 1 h. Cells were mounted in Vectashield with DAPI (Vector Labs, Burlingame, CA) and visualized by a confocal microscope.

Test [6] has as its system PCNA and FEN1 co-localization in SK-N-AS NB cells. Kind of test: PCNA/FEN1 co-localization, immunofluorescence. Particulars: synchronized, 30 µM peptide 6 h after mimosine release. The class given is cell-based, human. The method, then: as §2
Test [7] relates to Rad51 foci in SK-N-BE(2)c cells. Put plainly: Rad51 foci immunofluorescence after γ-irradiation. The class given is cell-based, human. The conditions noted are these: 2 h peptide pretreatment, 5 Gy; 48 h after irradiation. The method, then: as §1
Test [8] concerns the target T1, interaction between PCNA and the PIP-box sequence of FEN1 (Homo sapiens, UniProt P39748).
T1 construct: Recombinant PCNA (rPCNA), purchased from Surmodics, Inc. (Edina, MN); FEN1 peptide containing the PIP-box (SKSRQGSTQGRLDDFF); purchased Surmodics, Inc. (Edina, MN)
Kind of test: SPR (Biacore) PCNA binding to immobilized FEN1 PIP-box in presence of caPep. As for the experimental part:
All experiments were conducted on the Biacore T100 (GE Healthcare Life Sciences, Piscataway, NJ) in the running buffer HBS-EP+ (10 mM HEPES pH 7.4, 0.15 M NaCl, 3 mM EDTA, 0.05% v/v Surfactant P20). FEN1 peptide containing the PIP-box (SKSRQGSTQGRLDDFF) was immobilized on a carboxymethylated dextran modified CM5 chip using carbodiimide covalent linkage procedures outlined by the manufacturer (GE Healthcare Life Sciences). Recombinant PCNA (rPCNA), purchased from Surmodics, Inc. (Edina, MN), were serially diluted in the HBS-EP+ buffer and flowed over the FEN1-coated sensor chip in the presence of 0, 500, or 1000 nM of caPep at a 5 ìl/min flow rate with a contact time of 3 minutes, followed by dissociation under the same buffer condition and regeneration of the chip surface in 10 mM glycine-HCl (pH 2.0). Binding curves were recorded for rPCNA concentrations ranging from 250 to 1000 nM in the presence of 0, 500, or 1000 nM of caPep. Kinetic parameters from Biacore binding data were determined using Biacore T100 Evaluation Software Version 2.0.3.
A general note: In SPR one partner is held on a chip, and binding of the other changes the refractive index at the surface.

`N.N.[Cl][Pt][Cl]` [cisplatin, reference compound]: the “reduction of number of colonies, single agent” value in test [1] is “less than 30%”.

“RDRDRDRDRDRDRDRDRDCCEPGLIYEQ [R9-srbPep, R9-CC fused to the same residues as PCNA L126-Y133 in scrambled order; control]”: the “ãH2A.X level within 30 min after irradiation” value in test [2] is recorded as “increased within 30 min following ã-irradiation in cells treated with either peptide”. For the same molecule, the “ãH2A.X level 48 h after irradiation” value in test [2] (48 h) is “went down to a basal level by 48 h”. Moreover, in test [3], the “cell cycle progress within 6 h” value is “neither peptide significantly affected cell cycle progress within 6 h”. Further, in test [4], the “effect on cell growth” value is on record as “did not significantly affect cell growth up to 50 µM”. Moreover, the “LIGI co-localization with PCNA foci” value in test [5] is “PCNA co-localized with FEN1 and LIGI at discrete foci”. Further, the “FEN1 co-localization with PCNA foci” value in test [6] was “PCNA co-localized with FEN1 and LIGI at discrete foci”. Further, the “Rad51 foci at 48 h” value in test [7] is “almost completely resolve the Rad51 foci”.

On to “caPep: eight amino acid peptide corresponding to the L126-Y133 sequence of human PCNA (LGIPEQEY)”, for which the “affinity of PCNA-FEN1 PIP-box interaction” value in test [8] (0, 500 or 1000 nM caPep) is “decrease the affinity of PCNA-FEN1 PIP-box interaction in a dose-dependent manner”. Further, the “rPCNA interaction with immobilized FEN1 PIP-box sequence (SPR response)” value in test [8] (1000 nM rPCNA, 0, 500 or 1000 nM caPep) was “significantly reduced rPCNA interaction with the immobilized FEN1 PIP-box sequence”.

The values above are taken from publication PMC3984256, “A PCNA-Derived Cell Permeable Peptide Selectively Inhibits Neuroblastoma Cell Growth” (PLoS ONE, 2014).
